From patent US6440986B2, “HIV Inhibiting pyrimidine derivatives” (Janssen Pharmaceutica, N.V., priority 1998, dated 2002)
Like-named read-outs stand apart in the source and are kept apart here.

Key:
HIV-1 = assay: in vitro anti-HIV assay: inhibition of the HIV-induced cytopathic effect in MT-4 cells (MTT); format: cell-based; settings: OD 540 nm
Protocol: A rapid, sensitive and automated assay procedure was used for the in vitro evaluation of anti-HIV agents. An […] T4-cell line, MT-4, which was previously shown (Koyanagi et al., Int. J. Cancer, 36, 445-451, 1985) to be highly susceptible to and permissive for HIV infection, served as the target cell line. Inhibition of the HIV-induced cytopathic effect was used as the end point. The viability of both HIV- and mock-infected cells was assessed spectrophotometrically via the in situ reduction of 3-(4,5-dimethylthiazol-2-yl)-2,5-diphenyltetrazolium bromide (MTT). […] The percent protection achieved by the compound in HIV-infected cells was calculated by the following formula: [formula]
(§1) whereby (ODT)HIV is the optical density measured with a given concentration of the test compound in HIV-infected cells; (ODC)HIV is the optical density measured for the control untreated HIV-infected cells: (ODC)MOCK is the optical density measured for the control untreated mock-infected cells; all optical density values were determined at 540 nm. […] The ratio of CC50 to IC50 was defined as the selectivity index (SI).

[1] = cytotoxicity in mock-infected MT-4 cells (MTT); format: cell-based; settings: human, mock-infected MT-4 cells, 50% cytotoxic concentration; reduces absorbance of mock-infected MT-4 control by 50%; MTT
Protocol: (§2) A rapid, sensitive and automated assay procedure was used for the in vitro evaluation of anti-HIV agents. […] Inhibition of the HIV-induced cytopathic effect was used as the end point. The viability of both HIV- and mock-infected cells was assessed spectrophotometrically via the in situ reduction of 3-(4,5-dimethylthiazol-2-yl)-2,5-diphenyltetrazolium bromide (MTT). […] The percent protection achieved by the compound in HIV-infected cells was calculated by the following formula: [formula]
as §1

[2] = system: MT-4 cells (mock-infected); assay: cytotoxicity in mock-infected MT-4 cells (MTT); format: cell-based
Protocol: as §2, §1

[3] = Human immunodeficiency virus 1, MT4, dose achieving 50% protection of HIV-infected MT-4 cells against cytopathic effect
[4] = dose achieving 50% protection of HIV-infected MT-4 cells against cytopathic effect
[5] = 50% cytotoxic concentration, reduces absorbance of mock-infected MT-4 control by 50%, MTT, read-out: CC50

Row | Structure (SMILES) | IC50 (HIV-1; [4]) [nM] | CC50 [2] [nM] | other results
1 | N#Cc1ccc(Nc2nc(Cc3c(Cl)cccc3Cl)cc(NCCCO)n2)cc1 [Compound 3, 4-[[4-[(2,6-dichloro-phenyl)methyl]-6-[(3-hydroxypropyl)amino]-2-pyrimidinyl]amino]benzonitrile] | – | – | IC50 (HIV-1; [3]): 16 nM; CC50 [1]: 37400 nM
2 | N#Cc1ccc(Nc2nc(Cc3c(Cl)cccc3Cl)cc(NCCN3CCCC3)n2)cc1 [Compound 13, 4-[[4-[(2,6-dichloro-phenyl)methyl]-6-[[2-(1-pyrrolidinyl)ethyl]amino]-2-pyrimidinyl]amino]benzonitrile] | – | – | melting point: 80 to 85 °C; IC50 (HIV-1; [3]): 5 nM; CC50 [1]: 7800 nM
3 | CCCCCCCC(=O)Nc1cc(Cc2c(Cl)cccc2Cl)nc(Nc2ccc(C#N)cc2)n1 [Compound 17, N-[6-[(2,6-dichloro-phenyl)methyl]-2-[(4-cyano-phenyl)amino]-4-pyrimidinyl]octanamide] | – | – | melting point: 135 to 137 °C; IC50 (HIV-1; [3]): 167 nM; CC50 [1]: 9100 nM
4 | N#Cc1ccc(Nc2nc(Cc3c(Cl)cccc3Cl)cc(NC(=O)CN3CCCCC3)n2)cc1 [Compound 25, N-[6-[(2,6-dichloro-phenyl)methyl]-2-[(4-cyano-phenyl)amino]-4-pyrimidinyl]-1-piperidine-acetamide] | – | – | melting point: 175 to 180 °C; IC50 (HIV-1; [3]): 79 nM; CC50 [1]: > 100000 nM
5 | N#Cc1ccc(Nc2cc(Cc3c(Cl)cccc3Cl)nc(NCCCN3CCCC3=O)n2)cc1 [Compound 39, 4-[[6-[(2,6-dichloro-phenyl)methyl]-2-[[3-(2-oxo-1-pyrrolidinyl)propyl]amino]-4-pyrimidinyl]amino]benzonitrile] | – | – | IC50 (HIV-1; [3]): 1530 nM; CC50 [1]: > 100000 nM
6 | Cc1cc(C)c(Nc2ccnc(Nc3ccc(C#N)cc3)n2)c(C)c1 [Compound 52, 4-[[4-[(2,4,6-trimethylphenyl)amino]-2-pyrimidinyl]amino]benzonitrile] | – | – | IC50 (HIV-1; [3]): 1 nM; CC50 [1]: 2080 nM
7 | Cc1cc(C)c(Oc2ccnc(Nc3ccc(C#N)cc3)n2)c(C)c1 [Compound 58, 4-[[4-(2,4,6-trimethylphenoxy)-2-pyrimidinyl]amino]benzonitrile] | – | – | IC50 (HIV-1; [3]): 2.9 nM; CC50 [1]: > 100000 nM
8 | Cc1cc(Br)c(Nc2ccnc(Nc3ccc(C#N)cc3)n2)c(Br)c1 [Compound 61, 4-[[4-[(2,6-dibromo-4-methylphenyl)amino]-2-pyrimidinyl]amino]benzonitrile] | – | – | IC50 (HIV-1; [3]): 0.7 nM; CC50 [1]: 100 nM
9 | N#Cc1ccc(Nc2nccc(Nc3c(Cl)cc(C(F)(F)F)cc3Cl)n2)cc1 [Compound 66, 4-[[4-[[2,6-dichloro-4-(trifluoromethyl)-phenyl]amino]-2-pyrimidinyl]amino]benzonitrile] | – | – | IC50 (HIV-1; [3]): 8.5 nM; CC50 [1]: 19900 nM
10 | Cc1cc(C#N)cc(C)c1Nc1ccnc(Nc2ccc(C#N)cc2)n1 [Compound 69, 4-[[2-[(cyanophenyl)amino]-4-pyrimidinyl]amino]-3,5-dimethylbenzonitrile] | 0.4 | – | CC50 [2, 5]: 4700 nM
11 | N#Cc1ccc(Nc2nccc(Nc3c(F)cc(Br)cc3Br)n2)cc1 [Compound 70] | 0.6 | 5800 | –
12 | Cc1cc(C)c(N(C)c2ccnc(Nc3ccc(C#N)cc3)n2)c(C)c1 [Compound 71] | 6.3 | 45800 | –
13 | N#Cc1ccc(Nc2nccc(Nc3c(Cl)cc(Cl)cc3Cl)n2)cc1 [Compound 72] | 0.7 | 500 | –
14 | Cc1cc(C)c(Sc2ccnc(Nc3ccc(C#N)cc3)n2)c(C)c1 [Compound 73] | 3.6 | > 100000 | –
15 | Cc1cc(Cl)cc(Br)c1Oc1ccnc(Nc2ccc(C#N)cc2)n1 [Compound 74] | 10 | > 100000 | –
16 | Cc1cc(Cl)cc(C)c1Nc1ccnc(Nc2ccc(C#N)cc2)n1 [Compound 75] | 2.1 | 1900 | –
17 | N#Cc1ccc(Nc2nccc(Nc3c(Cl)cc(C#N)cc3Cl)n2)cc1 [Compound 76] | 3.3 | 5200 | –
18 | N#Cc1ccc(Nc2nccc(Nc3c(Cl)cc(OC(F)(F)F)cc3Cl)n2)cc1 [Compound 77] | 3 | 9600 | –
19 | N#Cc1ccc(Nc2nccc(Nc3c(Cl)cc(Br)c(Cl)c3Br)n2)cc1 [Compound 78] | 2.8 | 400 | –
20 | CCCc1cc(Br)c(Nc2ccnc(Nc3ccc(C#N)cc3)n2)c(Br)c1 [Compound 79] | 3.1 | 4800 | –
21 | Cc1cc(C(C)(C)C)cc(C)c1Nc1ccnc(Nc2ccc(C#N)cc2)n1 [Compound 80] | 11 | 8700 | –
22 | Cc1cc(C#N)cc(C)c1Oc1ccnc(Nc2ccc(C#N)cc2)n1 [Compound 81] | 1.1 | > 100000 | –

Row | Structure (SMILES) | IC50 (HIV-1; [4]) [nM] | CC50 [2] [nM] | other results
23 | Cc1cnc(Nc2ccc(C#N)cc2)nc1Nc1c(C)cc(Cl)cc1C [Compound 82] | 2.6 | 400 | –
24 | Cc1cnc(Nc2ccc(C#N)cc2)nc1Nc1c(C)cc(C(C)(C)C)cc1C [Compound 84] | 12 | 9300 | –
25 | Cc1cnc(Nc2ccc(C#N)cc2)nc1Nc1c(C)cc(Br)cc1C [Compound 85] | 2 | 400 | –
26 | Cc1cc(C)c(Sc2nc(Nc3ccc(C#N)cc3)ncc2C)c(C)c1 [Compound 86] | 10 | > 100000 | –
27 | CCCc1cc(Br)c(Nc2nc(Nc3ccc(C#N)cc3)ncc2C)c(Br)c1 [Compound 87] | 3.1 | 2200 | –
28 | Cc1cnc(Nc2ccc(C#N)cc2)nc1Nc1c(Br)cc(C(C)C)cc1Br [Compound 88] | 2.7 | 2100 | –
29 | Cc1cnc(Nc2ccc(C#N)cc2)nc1Nc1c(C)cc(C#N)cc1C [Compound 89, 4-[[2-[(4-cyanophenyl)amino]-5-methyl-4-pyrimidinyl]amino]-3,5-dimethylbenzonitrile] | – | – | IC50 (HIV-1; [3]): 0.7 nM; CC50 [1]: 400 nM
30 | Cc1cc(C)c(Nc2ccnc(Nc3ccc(C#N)cc3N)n2)c(C)c1 [Compound 90] | 3400 | 30800 | –
31 | Cc1cc(C)c(Nc2ccnc(Nc3ccc(C#N)c(O)c3)n2)c(C)c1 [Compound 91] | 2.5 | 4900 | –
32 | Clc1cccc(Cl)c1Nc1ccnc(Nc2c(Cl)cccc2Cl)n1 [Compound 92] | 45000 | > 90000 | –
33 | Cc1cc(C)c(Nc2nccc(Nc3ccc(C#N)cc3)n2)c(C)c1 [Compound 93] | 3.5 | 48100 | –
34 | Cc1cc(C)c(Nc2cc(N)nc(Nc3ccc(C#N)cc3)n2)c(C)c1 [Compound 94] | 2.2 | 11100 | –
35 | Cc1cc(C)c(Nc2cc(Nc3ccc(C#N)cc3)nc(N)n2)c(C)c1 [Compound 95] | 0.6 | 7700 | –
36 | Cc1cc(C)c(Nc2ccnc(Nc3ccc(Cl)cc3)n2)c(C)c1 [Compound 96] | 3.1 | 5800 | –
37 | Cc1cc(C)c(Nc2ccnc(Nc3ccc(F)cc3F)n2)c(C)c1 [Compound 97] | 32 | 13200 | –
38 | Cc1cc(C)c(Nc2ccnc(Nc3ccc(Br)cn3)n2)c(C)c1 [Compound 98] | 2000 | 13800 | –
39 | Cc1cc(C)c(Nc2ccnc(Nc3ccc(C(N)=O)cc3)n2)c(C)c1 [Compound 100, 4-[[4-[(2,4,6-trimethylphenyl)amino]-2-pyrimidinyl]amino]benzamide] | – | – | IC50 (HIV-1; [3]): 75 nM; CC50 [1]: 800 nM
40 | Cc1cc(C)c(Nc2ccnc(Nc3ccc(C(N)=O)c(N)c3)n2)c(C)c1 [Compound 101] | 53 | 29500 | –
41 | Cc1cc(C)c(Nc2ccnc(Nc3ccc(C#N)c(N)c3)n2)c(C)c1 [Compound 102] | 8.2 | – | CC50 [2, 5]: 500 nM
42 | Cc1c(N)nc(Nc2ccc(CC#N)cc2)nc1Cc1c(Cl)cccc1Cl [Compound 103] | 22 | > 100000 | –
43 | N#Cc1ccc(Nc2nccc(NCc3ccccc3)n2)cc1 [Compound 104] | 3.4 | 18600 | –
